The values below are quoted from earlier work in patent US11577212B2, “Stimuli-responsive micro-reservoirs for release of encapsulants” (priority 2018, dated 2023).

Turning to `CCCCC` [pentane], the solubility in water is 0.04 g/100 g.

In the case of `CCOC(C)=O` [ethyl acetate], the solubility in water is reported as 8.7 g/100 g.

Turning to `CN(C)P(N(C)C)N(C)C` [Hexamethylphosphorous triamide (HMPT), Hexamethylphosphorous triamide], the solubility in water result is “Miscible”.

In the case of `C1CCCCC1` [cyclohexane], the solubility in water was 0.0055 g/100 g.

With `COCCOCCOC` [diethylene glycol dimethyl ether], the solubility in water entry is “Miscible”.

Consider `Clc1ccccc1` [chlorobenzene], for which the solubility in water was 0.05 g/100 g.

For `COCCOC` [1,2-dimethoxy-ethane (glyme, DME), 1,2-dimethoxy-ethane], the solubility in water result is “Miscible”.

Consider `CCCCCC` [hexane], for which the solubility in water was 0.0014 g/100 g.

As to `OCC(O)CO` [glycerin], the solubility in water result is “Miscible”.

`CCO` [ethanol]: the solubility in water result is listed as “Miscible”.
